# Molecular target: T1, G12D-mutant human KRAS (amino acid residues 1-188) (Homo sapiens, UniProt P01116, G12D)
# T1 construct: G12D or G12C-mutant human KRAS (amino acid residues 1-188) with FLAG tag; made in house; host or cells: E. coli
# Assay: KRAS Binding Disruption Assay (AlphaScreen; biotinylated KRpep-2d analogue or RAF1-RBD), G12D
# Conditions: KRAS G12D; geometric mean; read-out: KRAS GMean IC50 (uM) MUTATION: G12D
# Procedure: Compound binding disrupts the interaction of KRpep-2d or RAF1-RBD with KRAS, leading to a decrease in Alpha signal.
# All assay components were prepared in 20 mM HEPES (pH 7.5), 100 mM NaCl, 5 mM MgCl2, 0.01% Tween-20, and 0.01% BSA. Biotinylated analogues of KRpep-2d were custom synthesized. The binding disruption assays were performed using 5-20 nM of mutant KRAS and 5-20 nM of either biotinylated KRpep-2d analogue or RAF1-RBD. 19 μL of KRAS protein and 4 μL of biotinylated KRpep-2d or RAF1-RBD were added to the wells of a 384-well plate containing 1 μL of various concentrations of test compound or DMSO vehicle. 16 wells containing KRAS, biotinylated KRpep-2d or RAF1-RBD, and 5% DMSO served as high controls. 16 wells containing KRAS only and 5% DMSO served as low controls. Binding reactions were incubated for 1 hour at 25° C., then Anti-Flag Acceptor and Streptavidin Donor Alpha beads were added at a final concentration of 10 μg/mL for an additional hour at room temperature. Alpha signal was read out on a Perkin Elmer Envision HTS instrument. The percentage inhibition at individual compound concentrations relative to high and low controls was calculated. The data were analyzed by using nonlinear regression to generate IC50 values.
# T1 sequence (P01116 1-188 isoform P01116-2 G12D): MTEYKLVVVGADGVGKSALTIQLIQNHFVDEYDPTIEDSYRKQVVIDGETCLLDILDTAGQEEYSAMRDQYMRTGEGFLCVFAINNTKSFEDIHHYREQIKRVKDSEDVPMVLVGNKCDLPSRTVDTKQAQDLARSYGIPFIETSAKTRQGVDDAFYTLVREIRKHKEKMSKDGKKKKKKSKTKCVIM
row,Compound,IC50 [µM]
1,"C#Cc1cccc2[nH]cc(-c3ccc4c(N5C[C@H]6CC[C@@H](C5)N6)nc(OCC56CCCN5CCC6)nc4c3F)c12 [P-0513, 4-((1R,5S)-3,8-diazabicyclo[3.2.1]octan-3-yl)-7-(4-ethynyl-1H-indol-3-yl)-8-fluoro-2-((tetrahydro-1H-pyrrolizin-7a(5H)-yl)methoxy)quinazoline]",0.0001 to 10
2,"CC(C)(CNC(=O)CO)COc1nc(N2C[C@H]3CC[C@@H](C2)N3)c2ccc(-c3cc(O)cc4ccccc34)c(F)c2n1 [P-0537, N-(3-((4-((1R,5S)-3,8-diazabicyclo[3.2.1]octan-3-yl)-8-fluoro-7-(3-hydroxynaphthalen-1-yl)quinazolin-2-yl)oxy)-2,2-dimethylpropyl)-2-hydroxyacetamide]",0.0001 to 10
3,"CCc1cccc2[nH]cc(-c3ncc4c(N5C[C@H]6CC[C@@H](C5)N6)nc(OCC56CCCN5CCC6)nc4c3F)c12 [P-0549, 4-((1R,5S)-3,8-diazabicyclo[3.2.1]octan-3-yl)-7-(4-ethyl-1H-indol-3-yl)-8-fluoro-2-((tetrahydro-1H-pyrrolizin-7a(5H)-yl)methoxy)pyrido[4,3-d]pyrimidine]",0.0001 to 10
4,"NCC1(COc2nc(N3C[C@H]4CC[C@@H](C3)N4)c3ccc(-c4cc(O)cc5ccccc45)c(F)c3n2)CC(F)(F)C1 [P-0580, 4-(2-((1-(aminomethyl)-3,3-difluorocyclobutyl)methoxy)-4-((1R,5S)-3,8-diazabicyclo[3.2.1]octan-3-yl)-8-fluoroquinazolin-7-yl)naphthalen-2-ol]",0.0001 to 10
5,"CCc1cc(F)cc2[nH]cc(-c3ccc4c(N5C[C@H]6CC[C@@H](C5)N6)nc(OCC56CCCN5CCC6)nc4c3F)c12 [P-0535, 4-((1R,5S)-3,8-diazabicyclo[3.2.1]octan-3-yl)-7-(4-ethyl-6-fluoro-1H-indol-3-yl)-8-fluoro-2-((tetrahydro-1H-pyrrolizin-7a(5H)-yl)methoxy)quinazoline]",0.0001 to 10
6,"NCCN1[C@@H]2CC[C@H]1CN(c1nc(OCC34CCCN3CCC4)nc3c(F)c(-c4cc(O)cc5ccccc45)ccc13)C2 [P-0545, 4-(4-((1R,5S)-8-(2-aminoethyl)-3,8-diazabicyclo[3.2.1]octan-3-yl)-8-fluoro-2-((tetrahydro-1H-pyrrolizin-7a(5H)-yl)methoxy)quinazolin-7-yl)naphthalen-2-ol]",0.0001 to 10
7,"NC1(CO)CN(c2nc(N3C[C@H]4CC[C@@H](C3)N4)c3ccc(-c4cc(O)cc5ccccc45)c(F)c3n2)C1 [P-0577, 4-(2-(3-amino-3-(hydroxymethyl)azetidin-1-yl)-4-((1R,5S)-3,8-diazabicyclo[3.2.1]octan-3-yl)-8-fluoroquinazolin-7-yl)naphthalen-2-ol]",0.0001 to 10
8,"O=C1NCCN1CCOc1nc(N2C[C@H]3CC[C@@H](C2)N3)c2ccc(-c3cc(O)cc4ccccc34)c(F)c2n1 [P-0520, 1-(2-((4-((1R,5S)-3,8-diazabicyclo[3.2.1]octan-3-yl)-8-fluoro-7-(3-hydroxynaphthalen-1-yl)quinazolin-2-yl)oxy)ethyl)imidazolidin-2-one]",0.0001 to 10
9,"Oc1cc(-c2ccc3c(N4C[C@H]5CC[C@@H](C4)N5)nc(N4CCC5(CNC5)C4)nc3c2F)c2ccccc2c1 [P-0508, 4-(4-((1R,5S)-3,8-diazabicyclo[3.2.1]octan-3-yl)-8-fluoro-2-(2,6-diazaspiro[3.4]octan-6-yl)quinazolin-7-yl)naphthalen-2-ol]",0.0001 to 10
10,"CC(C)C(COC(=O)C(F)(F)F)COc1nc(N2C[C@H]3CC[C@@H](C2)N3)c2ccc(-c3cc(O)cc4ccccc34)c(F)c2n1 (stereo partly drawn) [P-0575, 2-(((4-((1R,5S)-3,8-diazabicyclo[3.2.1]octan-3-yl)-8-fluoro-7-(3-hydroxynaphthalen-1-yl)quinazolin-2-yl)oxy)methyl)-3-methylbutyl 2,2,2-trifluoroacetate]",0.0001 to 10
11,"CNCCOc1nc(N2C[C@H]3CC[C@@H](C2)N3)c2ccc(-c3cc(O)cc4ccccc34)cc2n1 [P-0083, 4-(4-((1R,5S)-3,8-diazabicyclo[3.2.1]octan-3-yl)-2-(2-(methylamino)ethoxy)quinazolin-7-yl)naphthalen-2-ol]",10 to 100
12,"CN1CC(F)(F)C[C@H]1COc1nc(N2C[C@H]3CC[C@@H](C2)N3)c2ccc(-c3cc(O)cc4ccccc34)c(F)c2n1 [P-0553, 4-(4-((1R,5S)-3,8-diazabicyclo[3.2.1]octan-3-yl)-2-(((S)-4,4-difluoro-1-methylpyrrolidin-2-yl)methoxy)-8-fluoroquinazolin-7-yl)naphthalen-2-ol]",0.0001 to 10
13,"CCNC1CCN(c2nc(N3C[C@H]4CC[C@@H](C3)N4)c3ccc(-c4cc(O)cc5ccccc45)c(F)c3n2)C1 (stereo partly drawn) [P-0531, 4-(4-((1R,5S)-3,8-diazabicyclo[3.2.1]octan-3-yl)-2-(3-(ethylamino)pyrrolidin-1-yl)-8-fluoroquinazolin-7-yl)naphthalen-2-ol]",0.0001 to 10
14,C#Cc1c(F)ccc2[nH]cc(-c3ccc4c(N5C[C@H]6CC[C@@H](C5)N6)nc(OCC56CCCN5CCC6)nc4c3F)c12 [P-0515],0.0001 to 10
15,"Fc1c(-c2cncc3cccc(Cl)c23)ccc2c(N3C[C@H]4CC[C@@H](C3)N4)nc(OCC34CCCN3CCC4)nc12 [P-0572, 4-((1R,5S)-3,8-diazabicyclo[3.2.1]octan-3-yl)-7-(5-chloroisoquinolin-4-yl)-8-fluoro-2-((tetrahydro-1H-pyrrolizin-7a(5H)-yl)methoxy)quinazoline]",0.0001 to 10
16,"Fc1cc(Cl)c2c(-c3ccc4c(N5C[C@H]6CC[C@@H](C5)N6)nc(OCC56CCCN5CCC6)nc4c3F)c[nH]c2c1 [P-0561, 4-((1R,5S)-3,8-diazabicyclo[3.2.1]octan-3-yl)-7-(4-chloro-6-fluoro-1H-indol-3-yl)-8-fluoro-2-((tetrahydro-1H-pyrrolizin-7a(5H)-yl)methoxy)quinazoline]",0.0001 to 10
17,"Nc1ccc(Cl)c(-c2c(Cl)cc3c(N4C[C@H]5CC[C@@H](C4)N5)nc(OCC45CCCN4CCC5)nc3c2F)c1 [P-0540, 3-(4-((1R,5S)-3,8-diazabicyclo[3.2.1]octan-3-yl)-6-chloro-8-fluoro-2-((tetrahydro-1H-pyrrolizin-7a(5H)-yl)methoxy)quinazolin-7-yl)-4-chloroaniline]",0.0001 to 10
18,"Oc1cc(-c2nc(N3C[C@H]4CC[C@@H](C3)N4)c3ccc(-c4cc(O)cc5ccccc45)c(F)c3n2)c2ccccc2c1 [P-0562, 4,4′-(4-((1R,5S)-3,8-diazabicyclo[3.2.1]octan-3-yl)-8-fluoroquinazoline-2,7-diyl)bis(naphthalen-2-ol)]",10 to 100
19,"O=C1NC2(CCO1)CN(c1nc(N3C[C@H]4CC[C@@H](C3)N4)c3ccc(-c4cc(O)cc5ccccc45)c(F)c3n1)C2 [P-0547, 2-(4-((1R,5S)-3,8-diazabicyclo[3.2.1]octan-3-yl)-8-fluoro-7-(3-hydroxynaphthalen-1-yl)quinazolin-2-yl)-7-oxa-2,5-diazaspiro[3.5]nonan-6-one]",0.0001 to 10
20,"CC(=O)c1cccc2cccc(-c3ccc4c(N5C[C@H]6CC[C@@H](C5)N6)nc(OCC56CCCN5CCC6)nc4c3F)c12 [P-0522, 1-(8-(4-((1R,5S)-3,8-diazabicyclo[3.2.1]octan-3-yl)-8-fluoro-2-((tetrahydro-1H-pyrrolizin-7a(5H)-yl)methoxy)quinazolin-7-yl)naphthalen-1-yl)ethan-1-one]",0.0001 to 10

# Same assay, conditions: Table 4; geometric mean; comparison with compounds of WO 2017/172979; read-out: KRAS GMean IC50 (uM) MUTATION: G12D
row,Compound,IC50 [µM]
1,"CN(C)CCCOc1nc(N2CCN(C)CC2)c2cc(Cl)c(-c3cc(O)cc4ccccc34)c(F)c2n1 [Compound 149 in WO 2017/172979, reference compound]",16.5
